Assay results: patent US9499464B2, “Opsin-binding ligands, compositions and methods of use” (priority 2011, dated 2016)

Tested on: P23H opsin
Experiment: Rhodopsin purification and regeneration (P23H cells treated with compound, regenerated with 9-cis-retinal, 480-500 nm absorbance)
Details: P23H cells, 48 hours, regeneration with 9-cis-retinal (20 μM)

## CC1=CC(=O)[C@H]2C(C)(C)CCC[C@@]12C (racemic) [Compound 1, (±)-(3aR,7aS)-3,3a,7,7-tetramethyl-3a,4,5,6,7,7a-hexahydro-1H-inden-1-one]
Compound concentration 10 μM
  Fold Increase Over Control (480-500 nm absorbance as fold increase over the DMSO control): 1.7 fold

## CC1(C)CCC(C)(C)[C@H]2OC(=O)C[C@H]21 (racemic) [Compound 3, (±)-(3aS,7aS)-4,4,7,7-tetramethylhexahydrobenzofuran-2(3H)-one]
Compound concentration 20 μM
  Fold Increase Over Control (480-500 nm absorbance as fold increase over the DMSO control): 2.2 fold

## CC1(C)CCC[C@@]2(C)C(=O)CC[C@@H]12 (racemic) [Compound 5, (±)-(3aS,7aR)-4,4,7a-trimethyloctahydro-1H-inden-1-one]
Compound concentration 10 μM
  Fold Increase Over Control (480-500 nm absorbance as fold increase over the DMSO control): 1.7 fold

## COC(=O)C1=C[C@]2(C)CCCC(C)(C)[C@@H]2C1 (racemic) [Compound 8, (±)-(3aS,7aS)-methyl 3a,7,7-trimethyl-3a,4,5,6,7,7a-hexahydro-1H-indene-2-carboxylate]
Compound concentration 20 μM
  Fold Increase Over Control (480-500 nm absorbance as fold increase over the DMSO control): 2.1 fold

## CC1=CC(=NO)[C@H]2C(C)(C)CCC[C@@]12C (racemic) [Compound 14, (±)-(3aR,7aS)-3,3a,7,7-tetramethyl-3a,4,5,6,7,7a-hexahydro-1H-inden-1-one oxime]
Compound concentration 20 μM
  Fold Increase Over Control (480-500 nm absorbance as fold increase over the DMSO control): 2.4 fold

## C[C@@H]1CC(=NO)[C@H]2C(C)(C)CCC[C@@]12C (racemic) [Compound 16, (±)-(3R,3aS,7aS)-3,3a,7,7-tetramethyloctahydro-1H-inden-1-one oxime]
Compound concentration 20 μM
  Fold Increase Over Control (480-500 nm absorbance as fold increase over the DMSO control): 2.2 fold

## CC1(C)CCC[C@@]2(C)[C@@H](O)CC[C@@H]12 (racemic) [Compound 18, (±)-(1S,3aS,7aR)-4,4,7a-trimethyloctahydro-1H-inden-1-ol]
Compound concentration 20 μM
  Fold Increase Over Control (480-500 nm absorbance as fold increase over the DMSO control): 1.7 fold

## C[C@H]1C(=O)C=C2C(C)(C)CCC[C@]21C (racemic) [Compound 20, (±)-(1R,7aS)-1,4,4,7a-tetramethyl-5,6,7,7a-tetrahydro-1H-inden-2(4H)-one]
Compound concentration 20 μM
  Fold Increase Over Control (480-500 nm absorbance as fold increase over the DMSO control): 1.9 fold

## CC1(C)CCC[C@@]2(C)C=C(CO)C[C@@H]12 (racemic) [Compound 22, (±)-((3aS,7aS)-3a,7,7-trimethyl-3a,4,5,6,7,7a-hexahydro-1H-inden-2-yl)methanol]
Compound concentration 20 μM
  Fold Increase Over Control (480-500 nm absorbance as fold increase over the DMSO control): 1.8 fold

## CC1(C)CCC[C@@]2(C)CC(CO)C[C@@H]12 (mixture of isomers) [Compound 26, (±)-((3aS,7aS)-3a,7,7-trimethyloctahydro-1H-inden-2-yl)methanol]
Compound concentration 20 μM
  Fold Increase Over Control (480-500 nm absorbance as fold increase over the DMSO control): 2.3 fold

## CC1(C)CCC[C@@]2(C)C(c3ccccc3)=CC(=O)[C@@H]12 (racemic) [Compound 28, (±)-(3aR,7aS)-3a,7,7-trimethyl-3-phenyl-3a,4,5,6,7,7a-hexahydro-1H-inden-1-one]
Compound concentration 10 μM
  Fold Increase Over Control (480-500 nm absorbance as fold increase over the DMSO control): 1.7 fold

## CC(C)C1=CC(=O)[C@H]2C(C)(C)CCC[C@@]12C (racemic) [Compound 29, (±)-(3aR,7aS)-3-isopropyl-3a,7,7-trimethyl-3a,4,5,6,7,7a-hexahydro-1H-inden-1-one]
Compound concentration 10 μM
  Fold Increase Over Control (480-500 nm absorbance as fold increase over the DMSO control): 2.4 fold

## CC1(C)CCC[C@@]2(C)C(=NO)CC[C@@H]12 (racemic) [Compound 33, (±)-(3aS,7aR)-4,4,7a-trimethyloctahydro-1H-inden-1-one oxime]
Compound concentration 10 μM
  Fold Increase Over Control (480-500 nm absorbance as fold increase over the DMSO control): 1.8 fold

## CCC1=CC(=O)[C@H]2C(C)(C)CCC[C@@]12C (racemic) [Compound 34, (±)-(3aR,7aS)-3-ethyl-3a,7,7-trimethyl-3a,4,5,6,7,7a-hexahydro-1H-inden-1-one]
Compound concentration 10 μM
  Fold Increase Over Control (480-500 nm absorbance as fold increase over the DMSO control): 2.2 fold

## CC1(C)CCC[C@@]2(C)C=C[C@H](O)[C@@H]12 (racemic) [Compound 36, (±)-(1S,3aS,7aS)-3a,7,7-trimethyl-3a,4,5,6,7,7a-hexahydro-1H-inden-1-ol]
Compound concentration 10 μM
  Fold Increase Over Control (480-500 nm absorbance as fold increase over the DMSO control): 2.0 fold

## CC1(C)CCC[C@@]2(C)C=C[C@@H](O)[C@@H]12 (racemic) [Compound 37, (±)-(1R,3aS,7aS)-3a,7,7-trimethyl-3a,4,5,6,7,7a-hexahydro-1H-inden-1-ol]
Compound concentration 10 μM
  Fold Increase Over Control (480-500 nm absorbance as fold increase over the DMSO control): 1.8 fold

## CC1(C)CCC[C@@]2(C)CC(=O)C[C@@H]12 (racemic) [Compound 40, (±)-(3aS,7aS)-3a,7,7-trimethylhexahydro-1H-inden-2(3H)-one]
Compound concentration 10 μM
  Fold Increase Over Control (480-500 nm absorbance as fold increase over the DMSO control): 1.8 fold

## CC(C)(C)C1=CC(=O)[C@H]2C(C)(C)CCC[C@@]12C (racemic) [Compound 43, (±)-(3aR,7aS)-3-tert-butyl-3a,7,7-trimethyl-3a,4,5,6,7,7a-hexahydro-1H-inden-1-one]
Compound concentration 10 μM
  Fold Increase Over Control (480-500 nm absorbance as fold increase over the DMSO control): 1.7 fold

## CC1(C)CCC[C@@]2(C)C(C3CC3)=CC(=O)[C@@H]12 (racemic) [Compound 44, (±)-(3aR,7aS)-3-cyclopropyl-3a,7,7-trimethyl-3a,4,5,6,7,7a-hexahydro-1H-inden-1-one]
Compound concentration 10 μM
  Fold Increase Over Control (480-500 nm absorbance as fold increase over the DMSO control): 2.2 fold

## CC(C)C1=CC(=NO)[C@H]2C(C)(C)CCC[C@@]12C (racemic) [Compound 45, (±)-(3aR,7aS)-3-isopropyl-3a,7,7-trimethyl-3a,4,5,6,7,7a-hexahydro-1H-inden-1-one oxime]
Compound concentration 10 μM
  Fold Increase Over Control (480-500 nm absorbance as fold increase over the DMSO control): 3.0 fold

## CC(C)[C@@H]1CC(=O)[C@H]2C(C)(C)CCC[C@@]12C (racemic) [Compound 46, (±)-(3S,3aS,7aS)-3-isopropyl-3a,7,7-trimethyloctahydro-1H-inden-1-one]
Compound concentration 10 μM
  Fold Increase Over Control (480-500 nm absorbance as fold increase over the DMSO control): 1.8 fold

## CON=C1C=C(C(C)C)[C@]2(C)CCCC(C)(C)[C@H]12 (racemic) [Compound 51, (±)-(3aR,7aS)-3-isopropyl-3a,7,7-trimethyl-3a,4,5,6,7,7a-hexahydro-1H-inden-1-one O-methyl oxime]
Compound concentration 10 μM
  Fold Increase Over Control (480-500 nm absorbance as fold increase over the DMSO control): 1.7 fold

## CC(C)[C@@H]1C[C@H](O)[C@H]2C(C)(C)CCC[C@@]12C (racemic) [Compound 58, (±)-(1S,3S,3aS,7aS)-3-isopropyl-3a,7,7-trimethyloctahydro-1H-inden-1-ol]
Compound concentration 20 μM
  Fold Increase Over Control (480-500 nm absorbance as fold increase over the DMSO control): 2.0 fold

## CC1(C)CCC[C@@]2(C)CC[C@H](O)[C@@H]12 (racemic) [Compound 60, (±)-(1S,3aS,7aS)-3a,7,7-trimethyloctahydro-1H-inden-1-ol]
Compound concentration 20 μM
  Fold Increase Over Control (480-500 nm absorbance as fold increase over the DMSO control): 2.1 fold

## CC(C)[C@H]1C(=O)C=C2[C@H]1CCCC2(C)C (racemic) [Compound 61, (±)-(1R,7aS)-1-isopropyl-4,4-dimethyl-5,6,7,7a-tetrahydro-1H-inden-2(4H)-one]
Compound concentration 20 μM
  Fold Increase Over Control (480-500 nm absorbance as fold increase over the DMSO control): 1.8 fold

## CC1(C)CCC[C@@]2(C)CC(=NO)C[C@@H]12 (racemic) [Compound 62, (±)-(3aS,7aS)-3a,7,7-trimethylhexahydro-1H-inden-2(3H)-one oxime]
Compound concentration 20 μM
  Fold Increase Over Control (480-500 nm absorbance as fold increase over the DMSO control): 2.3 fold

## CC1(C)CCC[C@@]2(C)CC(O)C[C@@H]12 (mixture of isomers) [Compound 63, (±)-(3aS,7aS)-3a,7,7-trimethyloctahydro-1H-inden-2-ol]
Compound concentration 20 μM
  Fold Increase Over Control (480-500 nm absorbance as fold increase over the DMSO control): 2.3 fold

## CC1=C(C)[C@H]2[C@H](CCCC2(C)C)C1=O (racemic) [Compound 64, (±)-(3aS,7aS)-2,3,4,4-tetramethyl-3a,4,5,6,7,7a-hexahydro-1H-inden-1-one]
Compound concentration 20 μM
  Fold Increase Over Control (480-500 nm absorbance as fold increase over the DMSO control): 2.1 fold

## CC1=C(C)[C@]2(C)CCCC(C)(C)[C@@H]2C1=O (racemic) [Compound 65, (±)-(3aR,7aS)-2,3,3a,7,7-pentamethyl-3a,4,5,6,7,7a-hexahydro-1H-inden-1-one]
Compound concentration 20 μM
  Fold Increase Over Control (480-500 nm absorbance as fold increase over the DMSO control): 1.8 fold

## CC1=C(C)[C@]2(C)CCCC(C)(C)[C@@H]2[C@H]1O (racemic) [Compound 66, (±)-(1R,3aR,7aS)-2,3,3a,7,7-pentamethyl-3a,4,5,6,7,7a-hexahydro 1H inden-1-ol]
Compound concentration 20 μM
  Fold Increase Over Control (480-500 nm absorbance as fold increase over the DMSO control): 1.9 fold

## C[C@H]1C(=O)C=C2[C@H]1CCCC2(C)C (racemic) [Compound 67, (±)-(1R,7aS)-1,4,4-trimethyl-5,6,7,7a-tetrahydro-1H-inden-2(4H)-one]
Compound concentration 20 μM
  Fold Increase Over Control (480-500 nm absorbance as fold increase over the DMSO control): 1.8 fold

## C[C@@H]1CC(=O)C2=CCCC(C)(C)[C@H]21 (racemic) [Compound 71, (±)-(3R,3aR)-3,4,4-trimethyl-2,3,3a,4,5,6-hexahydro-1H-inden-1-one]
Compound concentration 20 μM
  Fold Increase Over Control (480-500 nm absorbance as fold increase over the DMSO control): 2.2 fold

## CC1=C(C)[C@H]2[C@H](CCCC2(C)C)[C@@H]1O (racemic) [Compound 72, (±)-(1S,3aS,7aS)-2,3,4,4-tetramethyl-3a,4,5,6,7,7a-hexahydro-1H-inden-1-ol]
Compound concentration 20 μM
  Fold Increase Over Control (480-500 nm absorbance as fold increase over the DMSO control): 1.9 fold

## CC1(C)CCC(C)(C)C2CC(=O)C=C21 (single isomer, unassigned) [Compound 69b, (−)-4,4,7,7-tetramethyl-5,6,7,7a-tetrahydro-1H-inden-2(4H)-one]
Compound concentration 20 μM
  Fold Increase Over Control (480-500 nm absorbance as fold increase over the DMSO control): 1.8 fold

## CN1CC2=C(C1=O)C(C)(C)CCC2 [Compound 13, 2,7,7-trimethyl-2,3,4,5,6,7-hexahydro-1H-isoindol-1-one]
Compound concentration 20 μM
  Fold Increase Over Control (480-500 nm absorbance as fold increase over the DMSO control): 2.2 fold

## CC1(C)CCCC2=CC(=O)CC21 (stereo not drawn) [Compound 27, 7,7-dimethyl-5,6,7,7a-tetrahydro-1H-inden-2(4H)-one]
Compound concentration 10 μM
  Fold Increase Over Control (480-500 nm absorbance as fold increase over the DMSO control): 2.0 fold
